These results are taken from patent publication US11878971B2, “Piperlongumine-based compound and immuno regulator comprising the same” (HUSCION CO., LTD., priority 2020, dated 2024).

In assay [1] the test system is IL-4 gene expression. Briefly: T cell-dependent cytokine IL-4 gene expression inhibition, splenocytes ex vivo. Conditions: Balb/c mouse splenocytes, CD3 monoclonal antibody stimulation; control cyclosporine (CsA); FIG. 8.
Assay [2] relates to STAT3 signaling. Briefly: Reporter gene assay HEK-Blue IL-10. The assay is classed as cell-based. Conditions: HEK-Blue IL-10 cells, stimulant interleukin-10; FIG. 13. On the procedure: (§1) In the present test example, THP1-Lucia NF-κB, HEK-Lucia RIG-1, HEK-Blue-IL-4/IL-13, and HEK-Blue IL-10 cell lines were purchased from InVivoGen, and evaluated for inhibitory activity on immune cell signaling, and the analysis was performed according to the manufacturer's analysis method. Specifically, the four types of cell lines were treated with each of test substances, which are the piperlongumine-based compounds 1 to 19, and then treated with each of promoter stimulants (LPS, 3p-hpRNA, interleukin-4, and interleukin-10). The response was induced according to the guidelines, and then the activity inhibitory ability was analyzed.
Background: Reporter assays use an easily measured gene product as a stand-in for the process of interest.

Assay [3] deals with STAT6 signaling. Briefly: Reporter gene assay HEK-Blue-IL-4/IL-13. The assay is classed as cell-based. Conditions: HEK-Blue-IL-4/IL-13 cells, stimulant interleukin-4; FIG. 14. On the procedure:
as §1
STAT6 is a transcription factor that plays a role in modulating the expression of various cytokines, hormones, and growth factors by signals coming from the outside. IL-4/IL-13 and STAT6 are also important modulator of Th2.

Assay [4] has as its system IFNγ expression. Briefly: T cell-dependent cytokine IFNγ gene expression inhibition, splenocytes ex vivo. Conditions: Balb/c mouse splenocytes, CD3 monoclonal antibody stimulation; FIG. 7.
Assay [5] deals with IL-2 gene expression. Briefly: T cell-dependent cytokine IL-2 gene expression inhibition, splenocytes ex vivo. The settings on record: Balb/c mouse splenocytes, CD3 monoclonal antibody stimulation; control cyclosporine (CsA); FIG. 6.
Assay [6] relates to RIG1. Briefly: Reporter gene assay HEK-Lucia RIG-1. The assay is classed as cell-based. Conditions: HEK-Lucia RIG-1 cells, stimulant 3p-hpRNA; FIG. 12. The method, then: as §1
The subject of assay [7] is NF-κB signaling pathway. Briefly: Reporter gene assay THP1-Lucia NF-κB. The settings on record: THP1-Lucia NF-κB cells stimulated with LPS; FIG. 11. The assay is classed as cell-based. On the procedure:
as §1

Assay [8] relates to IL-17a gene expression. Briefly: T cell-dependent cytokine IL-17a gene expression inhibition, splenocytes ex vivo. The settings on record: Balb/c mouse splenocytes, CD3 monoclonal antibody stimulation.

Entries after “also recorded” stand apart in the source; their conditions may differ.

As to `COC(=O)c1cc(/C=C/C(=O)N2CCC=C(Br)C2=O)ccc1OC(C)=O` [Compound 11, (E)-methyl-2-acetoxy-5-(3-(3-bromo-2-oxo-5,6-dihydropyridin-1(2H)-yl)-3-oxoprop-1-en-1-yl)benzoate], in assay [1], the “IL-4 gene expression inhibitory activity” value is given as “IL-4 gene expression inhibitory activity at a significant level equal to or greater than that of cyclosporine”.

Take `COC(=O)c1cc(/C=C/C(=O)N2CCC=C(Cl)C2=O)ccc1O` [Compound 12, (E)-methyl-5-(3-(3-chloro-2-oxo-5,6-dihydropyridin-1(2H)-yl)-3-oxoprop-1-en-1-yl)-2-hydroxybenzoate]: the “STAT3 activity inhibitory effect” value in assay [2] is given as “very high STAT3 activity inhibitory ability”. The “STAT6 activity inhibitory effect” value in assay [3] is “very high STAT6 activity inhibitory ability”.

Regarding `COC(=O)c1cc(/C=C/C(=O)N2CCC=C(Br)C2=O)ccc1OC` [Compound 9, (E)-methyl-5-(3-(3-bromo-2-oxo-5,6-dihydropyridin-1(2H)-yl)-3-oxoprop-1-en-1-yl)-2-methoxybenzoate], the “inhibitory ability on Th1-derived IFNγ expression” value (from here on “inhibitory ability”) in assay [4] is on record as “effectively inhibit”. Besides, the “IL-4 gene expression inhibitory activity” value in assay [1] is “IL-4 gene expression inhibitory activity at a significant level equal to or greater than that of cyclosporine; also recorded: effectively inhibit”. For the same compound, in assay [5], the “IL-2 gene expression inhibitory activity” value is reported as “IL-2 gene expression inhibitory activity at a significant level equal to or greater than that of cyclosporine; also recorded: effectively inhibit”. For the same compound, in assay [2], the “STAT3 activity inhibitory effect” value was “very high STAT3 activity inhibitory ability”. The “RIG1 activity inhibitory effect” value in assay [6] is listed as “very high RIG1 activity inhibitory ability”. Also, in assay [7], the “NF-κB activity inhibitory effect” value is recorded as “very high NF-κB activity inhibitory ability”.

Regarding `O=C(/C=C/c1cccc([N+](=O)[O-])c1)N1CCC=C(Cl)C1=O` [Compound 16, (E)-3-chloro-1-(3-(3-nitrophenyl)acryloyl)-5,6-dihydropyridin-2(1H)-one], in assay [2], the “STAT3 activity inhibitory effect” value was “very high STAT3 activity inhibitory ability”. Further, in assay [3], the “STAT6 activity inhibitory effect” value is given as “very high STAT6 activity inhibitory ability”.

As to `COC(=O)c1cc(/C=C/C(=O)N2CCC=C(Cl)C2=O)ccc1OC` [Compound 3, (E)-methyl-5-(3-(3-chloro-2-oxo-5,6-dihydropyridin-1(2H)-yl)-3-oxoprop-1-en-1-yl)-2-methoxybenzoate], in assay [4], the “inhibitory ability” value is “effectively inhibit”. The “IL-4 gene expression inhibitory activity” value in assay [1] is “IL-4 gene expression inhibitory activity at a significant level equal to or greater than that of cyclosporine; also recorded: effectively inhibit”. Besides, the “IL-2 gene expression inhibitory activity” value in assay [5] is given as “IL-2 gene expression inhibitory activity at a significant level equal to or greater than that of cyclosporine; also recorded: effectively inhibit”. For the same compound, the “STAT3 activity inhibitory effect” value in assay [2] is “very high STAT3 activity inhibitory ability”. Further, the “STAT6 activity inhibitory effect” value in assay [3] is “very high STAT6 activity inhibitory ability”. Besides, the “RIG1 activity inhibitory effect” value in assay [6] is given as “very high RIG1 activity inhibitory ability”. In addition, the “NF-κB activity inhibitory effect” value in assay [7] is listed as “very high NF-κB activity inhibitory ability”.

Turning to `COC(=O)c1cc(/C=C/C(=O)N2CCC=C(Br)C2=O)ccc1O` [Compound 10, (E)-methyl-5-(3-(3-bromo-2-oxo-5,6-dihydropyridin-1(2H)-yl)-3-oxoprop-1-en-1-yl)-2-hydroxybenzoate], in assay [2], the “STAT3 activity inhibitory effect” value is recorded as “very high STAT3 activity inhibitory ability”. For the same compound, the “RIG1 activity inhibitory effect” value in assay [6] is recorded as “very high RIG1 activity inhibitory ability”.

`COC(=O)c1cc(/C=C/C(=O)N2CCC=C(Cl)C2=O)ccc1OC(C)=O` [Compound 13, (E)-methyl-2-acetoxy-5-(3-(3-chloro-2-oxo-5,6-dihydropyridin-1(2H)-yl)-3-oxoprop-1-en-1-yl)benzoate]: the “STAT3 activity inhibitory effect” value in assay [2] is “very high STAT3 activity inhibitory ability”. The “STAT6 activity inhibitory effect” value in assay [3] was “very high STAT6 activity inhibitory ability”.

Consider `COC(=O)c1cc(/C=C/C(=O)N2CCC=CC2=O)ccc1OC` [Compound 1, (E)-methyl-2-methoxy-5-(3-oxo-3-(2-oxo-5,6-dihydropyridin-1(2H)-yl)prop-1-en-1-yl)benzoate], for which the “inhibitory ability” value in assay [4] is given as “effectively inhibit”. Besides, the “IL-4 gene expression inhibitory activity” value in assay [1] is listed as “IL-4 gene expression inhibitory activity at a significant level equal to or greater than that of cyclosporine; also recorded: effectively inhibit”. Moreover, in assay [8] (control cyclosporine (CSA), FIG. 10), the “IL-17a gene expression inhibitory activity” value is recorded as “excellent IL-17a expression inhibitory activity compared with cyclosporine”. Besides, in assay [8] (relative to Compound 3), the “IL-17a gene expression inhibitory activity, fold higher compared with Compound 3” value is “at least 6 fold”. For the same compound, in assay [8] (relative to Compound 9), the “IL-17a gene expression inhibitory activity, fold higher compared with Compound 9” value is reported as “at least 3 fold”. Besides, the “IL-2 gene expression inhibitory activity” value in assay [5] is recorded as “IL-2 gene expression inhibitory activity at a significant level equal to or greater than that of cyclosporine; also recorded: effectively inhibit”. In addition, the “STAT3 activity inhibitory effect” value in assay [2] was “very high STAT3 activity inhibitory ability”. The “STAT6 activity inhibitory effect” value in assay [3] is reported as “very high STAT6 activity inhibitory ability”. Also, in assay [6], the “RIG1 activity inhibitory effect” value was “very high RIG1 activity inhibitory ability”. Besides, the “NF-κB activity inhibitory effect” value in assay [7] is recorded as “very high NF-κB activity inhibitory ability”.
